The source of these data is ChEMBL document CHEMBL3576804, “Novel Potent Orthosteric Antagonist of ASIC1a Prevents NMDAR-Dependent LTP Induction” (J Med Chem, 2015).

What all share (type): cell-based
In assay [1] the target is T1, Acid-sensing ion channel 1 (Homo sapiens) (UniProt P78348).
T1 sequence (whole entry): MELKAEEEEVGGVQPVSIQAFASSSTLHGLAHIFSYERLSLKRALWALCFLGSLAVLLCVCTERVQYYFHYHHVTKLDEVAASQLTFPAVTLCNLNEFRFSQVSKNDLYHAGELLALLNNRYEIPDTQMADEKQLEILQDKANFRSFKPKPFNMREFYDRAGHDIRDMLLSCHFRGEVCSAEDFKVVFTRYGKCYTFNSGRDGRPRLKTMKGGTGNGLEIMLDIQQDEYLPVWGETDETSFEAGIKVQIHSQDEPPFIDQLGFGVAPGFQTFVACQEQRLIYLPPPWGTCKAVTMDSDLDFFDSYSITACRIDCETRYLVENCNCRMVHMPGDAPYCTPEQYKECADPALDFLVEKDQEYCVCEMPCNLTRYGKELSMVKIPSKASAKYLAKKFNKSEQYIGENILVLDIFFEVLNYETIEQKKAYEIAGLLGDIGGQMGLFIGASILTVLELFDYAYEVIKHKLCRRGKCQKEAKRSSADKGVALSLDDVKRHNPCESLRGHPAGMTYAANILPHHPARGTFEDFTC
Briefly: Inhibition of human ASIC1a endogenously expressed in HEK293 cells clamped at -100 mV gated ionic current at 100 nM at pH 5.0 by standard whole cell patch clamp assay.

Assay [2] has as its target T1, Acid-sensing ion channel 1 (Homo sapiens). Briefly: Inhibition of human ASIC1a endogenously expressed in HEK293 cells clamped at -100 mV gated ionic current at 10 uM at pH 5.0 by standard whole cell patch clamp assay.
Assay [3] has the same target. Kind of assay: Inhibition of human ASIC1a endogenously expressed in HEK293 cells clamped at -100 mV gated ionic current at 10 uM at pH 6.7 by standard whole cell patch clamp assay.
The target is the same in assay [4]. Kind of assay: Reversible inhibition of human ASIC1a endogenously expressed in HEK293 cells clamped at -100 mV gated ionic current at 100 nM to 100 uM at pH 5.0 by standard whole cell patch clamp assay.
Assay [5] has the same target. Briefly: Inhibition of human ASIC1a endogenously expressed in HEK293 cells clamped at -100 mV gated ionic current at 100 uM at pH 6.7 by standard whole cell patch clamp assay.
The target is the same in assay [6]. Briefly: Inhibition of human ASIC1a endogenously expressed in HEK293 cells clamped at -100 mV gated ionic current at 100 nM at pH 6.7 by standard whole cell patch clamp assay.
The target is the same in assay [7]. Briefly: Inhibition of human ASIC1a endogenously expressed in HEK293 cells clamped at -100 mV gated ionic current at 100 uM at pH 5.0 by standard whole cell patch clamp assay.
Assay [8] shares this target. Briefly: Reversible inhibition of human ASIC1a endogenously expressed in HEK293 cells clamped at -100 mV gated ionic current at 100 nM to 100 uM at pH 6.7 by standard whole cell patch clamp assay.
Assay [9] shares this target. Kind of assay: Inhibition of human ASIC1a endogenously expressed in HEK293 cells clamped at -100 mV gated ionic current at 10 uM in presence of cellular membrane depolarization by standard whole cell patch clamp assay.
Assay [10] has the same target. Briefly: Inhibition of human ASIC1a endogenously expressed in HEK293 cells clamped at -20 mV gated ionic current at 10 uM by standard whole cell patch clamp assay.
The target is the same in assay [11]. Briefly: Inhibition of human ASIC1a endogenously expressed in HEK293 cells clamped at -100 mV gated ionic current at 10 uM by standard whole cell patch clamp assay.

Active and inactive are the calls of the source. No cut-off for these calls is given here.

In the case of `CCN(CC)CCN(Cc1ccccc1)c1ccc2cc(C(=N)N)c(=O)oc2c1`, the inhibition came out at 96.1% in assay [1]; 65.7% in [2]; 22.1% in assay [3]; 3.7% in assay [5]; 68.9% in [6]; 28.8% in assay [7]. Also, the inhibition entry in assay [4] and in assay [8] was “Active” throughout.
`N=C(N)NC(=O)c1nc(Cl)c(N)nc1N`: the inhibition entry in [9] is “inactive”. The inhibition turned out to be 60.7% in assay [10] and 41.3% in assay [11].
Take `CCN(CC)c1ccc2cc(C(=N)N)c(=O)oc2c1`: the inhibition is 49% in assay [5] and 41% in [7].
